Assay results: ChEMBL document CHEMBL3621192, “Novel anti-HIV-1 NNRTIs based on a pyrazolo[4,3-d]isoxazole backbone scaffold: design, synthesis and insights into the molecular basis of action” (Medchemcomm, 2014)
pEC50, pIC50: −log10 of the molar value.

Legend:
[1] = test system: Human immunodeficiency virus 1; assay: Antiviral activity against HIV1 RF infected in CEM-SS cells assessed as inhibition of virus-induced cytopathic effect by MTS assay; assay type: functional, organism-based; conditions: Human immunodeficiency virus 1, RF
[2] = Therapeutic index, ratio of CC50 for human MT4 cells to EC50 for HIV1 3B infected in MT4 cells; assay type: cell-based; conditions: read-out: Ratio CC50/EC50
[3] = test system: Human immunodeficiency virus 1; assay: Antiviral activity against HIV1 3B infected in MT4 cells assessed as inhibition of virus-induced cytopathic effect by MTT assay; assay type: functional, organism-based; conditions: Human immunodeficiency virus 1, 3B
[4] = Therapeutic index, ratio of CC50 for human CEM-SS cells to EC50 for HIV1 RF infected in CEM-SS cells; assay type: cell-based; conditions: read-out: Ratio CC50/EC50
[5] = target: Human immunodeficiency virus type 1 reverse transcriptase (Human immunodeficiency virus 1, UniProt Q72547); assay: Inhibition of HIV1 recombinant reverse transcriptase assessed as incorporation of [32P]GTP into poly(rC).oligo(dG) template primer
[6] = Metabolic stability in rat plasma assessed as half life; assay type: ADME, cell-free
[7] = Cytotoxicity against human MT4 cells by MTT assay; assay type: cell-based
[8] = Cytotoxicity against human CEM-SS cells by MTS assay; assay type: cell-based

Row | pIC50 [5] | half-life [6] [min] | Compound | pEC50 [1] | selectivity ratio [2] | pEC50 [3] | selectivity ratio [4] | CC50 [7] [nM] | CC50 [8] [nM]
1 | 10.43 | 132 | NC(=S)N1Nc2onc(-c3ccccc3)c2C1c1ccc(Cl)cc1 (stereo unspecified) | 9.11 | 1210 | 9.55 | 462 | 340 | 360
2 | 10.72 | 265 | Cc1nc(N2Nc3onc(-c4ccccc4)c3C2c2ccc(Cl)cc2)sc1/N=N/c1ccccc1 (stereo unspecified) | 9.27 | 867 | 9.52 | 833 | 260 | 450
3 | 10.46 | 454 | Cc1nc(N2Nc3onc(-c4ccccc4)c3C2c2ccc(Cl)cc2)sc1/N=N/c1ccc(Cl)cc1 (stereo unspecified) | 9.44 | 739 | 9.34 | 917 | 340 | 330
4 | 10.80 | 244 | Cc1nc(N2Nc3onc(-c4ccccc4)c3C2c2ccc(Cl)cc2)sc1/N=N/c1ccc(Br)cc1 (stereo unspecified) | 9.47 | 1440 | 9.57 | 412 | 390 | 140
5 | 10.34 | 343 | Cc1csc(N2Nc3onc(-c4ccccc4)c3C2c2ccc(Cl)cc2)n1 (stereo unspecified) | 9.33 | 657 | 9.46 | 936 | 230 | 440
6 | 10.74 | 274 | N/N=C(\N)N1Nc2onc(-c3ccccc3)c2C1c1ccc(Cl)cc1 (stereo unspecified) | 9.34 | 586 | 9.54 | 739 | 170 | 340

The remaining lines, values behind:

Row | Compound | pIC50 [5] | half-life [6] [min] | pEC50 [1] | selectivity ratio [2] | pEC50 [3] | selectivity ratio [4] | CC50 [7] [nM] | CC50 [8] [nM]
7 | Cc1ccc(/N=N/c2sc(N3Nc4onc(-c5ccccc5)c4C3c3ccc(Cl)cc3)nc2C)cc1 (stereo unspecified) | 10.57 | 343 | 9.60 | 818 | 9.26 | 1000 | 450 | 250
8 | COc1ccc(/N=N/c2sc(N3Nc4onc(-c5ccccc5)c4C3c3ccc(Cl)cc3)nc2C)cc1 (stereo unspecified) | 10.44 | 234 | 9.46 | 1050 | 9.36 | 971 | 460 | 340
9 | Cc1nc(N2Nc3onc(-c4ccccc4)c3C2c2ccc(Cl)cc2)sc1/N=N/c1ccc([N+](=O)[O-])cc1 (stereo unspecified) | 10.57 | 365 | 9.60 | 1560 | 9.74 | 1000 | 280 | 250
10 | CC1=C(/N=N/c2ccccc2)N=C(N2Nc3onc(-c4ccccc4)c3C2c2ccc(Cl)cc2)NN1 (stereo unspecified) | 10.35 | 123 | 9.36 | 1360 | 9.48 | 523 | 450 | 230
11 | CC1=C(/N=N/c2ccc(C)cc2)N=C(N2Nc3onc(-c4ccccc4)c3C2c2ccc(Cl)cc2)NN1 (stereo unspecified) | 10.72 | 154 | 9.37 | 673 | 9.31 | 837 | 330 | 360
12 | CC1=C(/N=N/c2ccc(Cl)cc2)N=C(N2Nc3onc(-c4ccccc4)c3C2c2ccc(Cl)cc2)NN1 (stereo unspecified) | 10.55 | 243 | 9.17 | 1220 | 9.43 | 403 | 450 | 270
13 | O=C1Nc2ccc(Cl)cc2[C@@](C#CC2CC2)(C(F)(F)F)O1 [EFAVIRENZ] | – | 88.9 | 9.04 | – | 9.01 | – | 320 | 550
